In data set [1] the target is α-amylase (EC3.2.1.1). The experiment in a line: α-Amylase inhibition assay. Format: biochemical. Particulars: for IC50: mean ± SD, samples in 30% (v/v) ethanol-PBS. As for the experimental part:
The inhibition assay with the α-amylase was performed as a previously reported protocol with a slight modification. […] Then, 1 U mL^−1 α-amylase (EC3.2.1.1), soluble starch solution (1%, w/v) and 3,5-dinitrosalicylic acid (DNS) were all dissolved in PBS (50 mM, pH 6.9). The mixed system contained a 500 μL sample or blank solution and 500 μL α-amylase incubated at 37 °C for 10 min, followed by the addition of 500 μL of preheated starch solution into the mixed incubated system to initiate the enzymatic hydrolysis reaction (37 °C, 10 min). Finally, 1 mL of DNS was added to halt the reaction, and the mixture was then allowed to sit in boiling water for 5 min. The absorbance was measured at 540 nm using a microplate reader (SpectraMax 190, Molecular Devices Co., Sunnyvale, CA, USA) at room temperature. The inhibition rate of the samples was calculated using the following equation: Inhibition rate (%)=[1−(Asample−Asample blank)/(Acontrol−Acontrol blank)]×100 where Asample, Asample blank, Acontrol, Acontrol blank represent the absorbance of the presence and absence of enzymes in sample solutions, and the absorbance of the presence and absence of enzymes in buffer solutions. The half-maximal inhibitory concentration (IC50) of each compound was obtained by regression analysis.

The target in data set [2] is α-glucosidase (EC3.2.1.20). Description: α-Glucosidase inhibition assay. Type of data set: biochemical. The note with it: mean ± SD; samples in 30% (v/v) ethanol-PBS. As for the experimental part: The inhibition assay with the α-glucosidase was carried out as a previously described protocol. […] The incubated system contained 50 μL of samples and 100 μL of the α-glucosidase solution was added to a 96-well plate at 37 °C for 10 min. Then, 50 μL of the substrate pNP-α-G was added to start the reaction at 37 °C. After 10 min, 100 μL of 1 M Na2CO3 solution was added to inactivate α-glucosidase and halt the generation of substrates, and the absorbance was read at 405 nm with the micro-plate reader (SpectraMax 190, Molecular Devices Co., Sunnyvale, CA, USA). The percentage of inhibition and the values of IC50 of samples were calculated by the same equation as α-amylase inhibition assay.

Data set [3] is described as follows: Oxygen radical scavenging capacity (ORAC) assay. The note with it: for ORAC value: Trolox equivalents per 1 g of compound, mean ± SD, n = 3; for decrease of ORAC antioxidant activity relative to 4-hydroxybenzoic acid: additional methoxy group(s) in ortho-positions of the p-OH. As for the experimental part:
The antioxidant activity of compounds was measured using the ORAC assay according to a previous method. Briefly, 150 μL 8.16 × 10^−5 mM fluorescein working solution was added to the inner wells of a 96-well microplate. Then the plate was incubated at 37 °C for 10 min, after which another 25 μL diluted antioxidants were added using Trolox as standard and 75 mM buffer solution as blank. The plate was shaken every 3 min during the incubation. […] All samples were analyzed in triplicate at three different dilutions. ORAC values were expressed as mean micromoles of Trolox equivalents (TE) per 1 g of the compound.

For data set [4], the system named is HepG2 cells. Description: Cellular antioxidant activity (CAA) assay. Format: cell-based. Particulars: for CAA value: converted from EC50, quercetin equivalents; for EC50: Homo sapiens, HepG2, HepG2 cells. The method, then:
HepG2 cells (ATCC Co., Manassas, VA, USA) were incubated in DMEM with 1% penicillin-streptomycin and 10% FBS and maintained at 37 °C with 5% CO2. The modified methylene blue assay was used to determine cytotoxicity.
The CAA assay was performed, according to Wolfe et al., with slight modification. In brief, 6 × 10^4 HepG2 cells were placed in each well of a black-walled 96-microwell plate. 200 μL of PBS was added to the edge of the plate to prevent the edge effect. After adherence, cells were treated with a range of concentrations of benzoic acid derivatives and a standard (quercetin) containing 50 μM DCFH-DA for 1 h under the same culture condition. After removing the supernatant medium, the cells were washed with or without PBS. Then promptly added 600 μM ABAP into each well except blank groups before reading at 485 nm excitation and 538 nm emission using a multifunctional microplate detector (Molecular Devices, Sunnyvale, CA, USA). The fluorescence values were recorded every 5 min for 1 h. The CAA values were obtained by converting the EC50 values and presented as μmol quercetin equivalents (QE)/100 μmol.

Data set [5] in a line: Dissolution in 30% (v/v) ethanol-water solvent system. Format: physicochemical. Particulars: high-concentration.

Values joined by “and” are separate entries in the source; they are usually repeats but may differ in a detail not shown here. Equal entries are not always repeated.

What is called IC50 is the concentration at which inhibition is half-maximal. A high value points to lower potency. The compound `COc1cc(C(=O)O)cc(OC)c1O` [Compound 13, syringic acid] had an IC50 in data set [1] greater than 100 mM. In addition, the IC50 in data set [2] was found to be 20.3 ± 0.39 mM. Also, in data set [3], the ORAC value was 1879.9 ± 44.7 μmol TE/g and the “decrease of ORAC antioxidant activity relative to 4-hydroxybenzoic acid” value was found to be 7.91 folds.

`COc1cc(C(=O)Cl)c(O)c(O)c1O` [Compound 1, 2,3,4-trihydroxy-5-methoxy benzoyl chloride]: the ORAC value in data set [3] was determined as 4094.6 ± 32.1 μmol TE/g.

In the case of `Cc1cncc(CC(O)C(O)CO)n1` (stereo not shown) [Compound 9, 2-methyl-6-(2′,3′,4′-trihydroxybutyl)-pyrazine], the ORAC value in data set [3] stood at 78.0 ± 2.9 μmol TE/g.

`COc1ccc(OC)cc1` [Compound 14, 1,4-dimethoxybenzene]: the ORAC value in data set [3] came out at 2154.2 ± 183.1 μmol TE/g.

In the case of `COc1ccc(OC2OC(CO)C(O)C(O)C2O)cc1OC` [Compound 11, 3,4-dimethoxyphenyl-O-β-D-glucopyranoside], in data set [3], the ORAC value is recorded as 56.5 ± 2.8 μmol TE/g.

The term EC50 denotes the concentration giving half of the maximal effect. Read a high EC50 as lower potency in that assay. Turning to `COc1cc(C(=O)O)ccc1O` [Compound 8, vanillic acid], the IC50 is greater than 100 mM in data set [1] and 29.7 ± 0.33 mM in data set [2]. Also, the “cellular uptake rate (CAA value of the PBS wash/no PBS wash × 100%)” value in data set [4] (HepG2 cells) is 71.53%. Besides, the CAA value is 6.18 μmol QE/100 μmol and 6.18 ± 0.09 μmol QE/100 μmol in data set [4] (HepG2 cells, PBS wash protocol); 8.64 μmol QE/100 μmol and 8.64 ± 0.53 μmol QE/100 μmol in data set [4] (HepG2 cells, no PBS wash protocol). For the same compound, the EC50 in data set [4] (PBS wash protocol) was determined as 0.21 ± 0.00322 mM; in data set [4] (no PBS wash protocol), 0.0591 ± 0.00374 mM. Besides, the ORAC value in data set [3] is 12945.8 ± 1419.3 μmol TE/g. The “decrease of ORAC antioxidant activity relative to 4-hydroxybenzoic acid” value in data set [3] turned out to be 1.15 folds.

Regarding `COc1cc(OC2OC(CO)C(O)C(O)C2O)cc(O)c1OC` [Compound 10, 3-hydroxy-4,5-dimethoxyphenyl-β-D-glucopyranoside], the ORAC value in data set [3] turned out to be 4177.5 ± 324.2 μmol TE/g.

`COc1ccc(O)c(C(=O)O)c1` [Compound 2, 2-hydroxy-5-methoxybenzoic acid]: the concentration for half-maximal inhibition (IC50) in data set [1] is 40.5 ± 0.44 mM; in data set [2], 26.1 ± 0.67 mM. Further, the ORAC value in data set [3] was determined as 32648.1 ± 2181.8 μmol TE/g.

Regarding `CC(=O)SC(C)=O` [Compound 3, acetyl sulfide], the ORAC value in data set [3] was determined as 1.3 ± 0.2 μmol TE/g.

On to `COc1ccc(C(=O)O)cc1O` [Compound 5, 3-hydroxy-4-methoxybenzoic acid], for which the “solubility in 30% (v/v) ethanol-water system” value in data set [5] is “cannot be dissolved”. In addition, the ORAC value in data set [3] is recorded as 20705.9 ± 835.9 μmol TE/g.

As to `COc1cc(OC)c(OC2OC(CO)C(O)C(O)C2O)c(OC)c1` [Compound 12, 2,4,6-trimethoxyphenyl-1-O-β-D-glucopyranoside], the ORAC value in data set [3] worked out at 80.2 ± 2.3 μmol TE/g.

Regarding `O=c1c(O)c(-c2ccc(O)c(O)c2)oc2cc(O)cc(O)c12` [Quercetin, quercetin, reference compound], the EC50 in data set [4] (PBS wash protocol) turned out to be 0.013 mM; in data set [4] (no PBS wash protocol), 0.00509 mM.

Consider `O=C(O)c1ccc(O)cc1` [Compound 7, 4-hydroxybenzoic acid], for which, in data set [1], the “α-amylase inhibition (in words)” value is reported as “did not show any inhibition effect” and the IC50 is greater than 100 mM. This compound also yielded an IC50 in data set [2] of 34.1 ± 1.51 mM. In data set [3], the ORAC value stood at 14874.9 ± 599.2 μmol TE/g.

On to `O=C(O)c1cc(O)ccc1O` [Compound 4, gentisic acid], for which the results for the half-maximal inhibitory concentration (IC50) in data set [1] and in data set [2] were 36 ± 2.23 mM and 30.5 ± 1.02 mM, respectively. Also, in data set [3], the ORAC value worked out at 23113.1 ± 1057.9 μmol TE/g.

(Values after article PMC9563075, “Identification and Structure–Activity Relationship of Recovered Phenolics with Antioxidant and Antihyperglycemic Potential from Sugarcane Molasses Vinasse” (Foods, 2022).)
